Laboratory results from US20140329863A1 (priority 2011, published 2014).
Values after ≈ are worked out from the molar mass of the structure shown. Like-named read-outs stand apart in the source and are kept apart here.

Key:
[1] = test system: PrP^Sc in dividing ScN2a-cl3 cells; assay type: cell-based, mouse; details: dividing ScN2a-cl3 cells
[2] = test system: PrP^Sc in ScN2a-cl3 cells; assay type: cell-based, mouse; details: Western immunoblots
N2a-cl3 cells = details: mouse
in vitro = details: mouse
[3] = read-out: Potency (nM) ELISA (EC50), PrP^Sc ELISA
[4] = read-out: EC50 (nM): Western, ScN2a-cl3 cells
[5] = read-out: Potency (nM) Western (EC50), dividing ScN2a-cl3 cells

SMILES	EC50 ([1]; read-out: EC50 (nM): ELISA)	EC50 [1, 3]	EC50 [2, 4]	EC50 [2, 5]	EC50 (nM): Calcein (LC50 values from calcein assays) (N2a-cl3 cells)	CC50 (in vitro)	solubility (physchem; pH 1.2, simulated gastric fluid)	solubility (physchem; pH 7.4, aqueous buffer)
c1ccc2cc(-c3cn4ccsc4n3)ccc2c1 [IND-009413]	6020 nM	6020 nM	2490 nM	2490 nM	MW: 250.2 EC50 (nM): ELISA: 6015 Calcein: >10,000 Western: 2490	> 10000 nM	–	–
CCc1ccc(-c2cn3cc(C)sc3n2)cc1 [IND-0009416]	1780 nM	1780 nM	517 nM	517 nM	MW: 242.3 EC50 (nM): ELISA: 1776 Calcein: >10,000 Western: 517	> 10000 nM	–	–
CCc1ccc(-c2cn3ccccc3n2)cc1 [IND-0009417]	9160 nM	9160 nM	4720 nM	4720 nM	MW: 222.3 EC50 (nM): ELISA: 9158 Calcein: >10,000 Western: 4715	> 10000 nM	–	–
CCc1ccc(-c2cn3cc(C)ccc3n2)cc1 [IND-0009419]	709 nM	709 nM	265 nM	285 nM	MW: 236.3 EC50 (nM): ELISA: 709 Calcein: >10,000 Western: 265	> 10000 nM	–	–
CC(=O)c1ccc(N2CCN(Cc3cccnc3)CC2)cc1 [IND-0018629]	–	–	886 nM	886 nM	MW: 295.4 EC50 (nM): ELISA: 2943 Calcein: >10,000 Western: 886	> 10000 nM	–	–
CC(=O)c1ccc(N2CCN(Cc3ccccc3)CC2)cc1 [IND-0019136]	8680 nM	8680 nM	615 nM	615 nM	MW: 294.4 EC50 (nM): ELISA: 8681 Calcein: >10,000 Western: 615	> 10000 nM	–	–
c1cncc(-c2nc(-c3c[nH]c4ccccc34)cs2)c1 [IND-0024350]	321 nM	321 nM	828 nM	828 nM	MW: 277.3 EC50 (nM): ELISA: 321 Calcein: >10,000 Western: 828	> 10000 nM	–	–
Cc1[nH]c2ccccc2c1-c1csc(-c2cccnc2)n1 [IND-0024352]	2270 nM	2270 nM	1700 nM	1700 nM	MW: 291.4 EC50 (nM): ELISA: 2267 Calcein: >10,000 Western: 1698	> 10000 nM	–	–
COc1ccc(-c2cc(-c3ccc(OC)cc3O)[nH]n2)cc1 [IND-0025807]	167 nM	167 nM	95 nM	95 nM	MW: 296.3 EC50 (nM): ELISA: 167 Calcein: >10,000 Western: 95	> 10000 nM	–	–
Cn1c(=N)n(CC(=O)c2ccc(Cl)cc2)c2ccccc21 [IND-0026326]	5900 nM	5900 nM	4970 nM	4970 nM	MW: 299.8 EC50 (nM): ELISA: 5900 Calcein: >10,000 Western: 4967	> 10000 nM	–	–
COc1ccc(-c2cc(-c3ccc(C)cc3O)[nH]n2)cc1 [IND-0028801]	245 nM	245 nM	117 nM	117 nM	MW: 280.3 EC50 (nM): ELISA: 245 Calcein: >10,000 Western: 117	> 10000 nM	–	–
O=C(Nc1nc(-c2ccc(-c3ccccc3)cc2)cs1)C1CC1 [IND-0030410]	317 nM	317 nM	194 nM	194 nM	MW: 320.4 EC50 (nM): ELISA: 317 Calcein: >10,000 Western: 194	> 10000 nM	17.7 µM (≈ 5.67 µg/mL)	12.7 µM (≈ 4.07 µg/mL)
CCOc1ccc(NC(=O)c2cc3ccccc3cc2O)cc1 [IND-0031751]	156 nM	156 nM	42 nM	42 nM	MW: 307.3 EC50 (nM): ELISA: 156 Calcein: >10,000 Western: 42	> 10000 nM	–	–
COc1ccc(C(=O)Nc2ccc(-c3csc(C)n3)cc2)cc1 [IND-0033145]	412 nM	412 nM	161 nM	161 nM	MW: 324.4 EC50 (nM): ELISA: 412 Calcein: >10,000 Western: 161	> 10000 nM	–	–
CN(C)CCNc1nc(-c2ccc(Cl)cc2)nc2ccccc12 [IND-0034921]	3690 nM	3690 nM	2010 nM	2010 nM	MW: 326.8 EC50 (nM): ELISA: 3693 Calcein: >10,000 Western: 2009	> 10000 nM	–	–
COc1cccc(Nc2nc(N)c3ccccc3n2)c1 [IND-0035916]	4020 nM	4020 nM	5990 nM	5990 nM	MW: 266.3 EC50 (nM): ELISA: 4023 Calcein: >10,000 Western: 5987	> 10000 nM	–	–
COc1cc(N)c(-c2ccc3cc(OC)c(OC)cc3n2)cc1OC [IND-0044355]	2140 nM	2140 nM	1830 nM	1830 nM	MW: 340.4 EC50 (nM): ELISA: 2143 Calcein: >10,000 Western: 1833	> 10000 nM	–	–
